Experimental data from article PMC6627609, “Targeting Quorum Sensing: High-Throughput Screening to Identify Novel LsrK Inhibitors” (International Journal of Molecular Sciences, 2019).
Where a name gives a salt, the structure may show the parent alone.

Target: LsrK (Salmonella typhimurium, UniProt Q8ZKQ6)
Experiment: biochemical
Format: biochemical, S. typhimurium
Conditions: for Inhibition (%): 50 µM

LsrK, sequence (Q8ZKQ6 whole entry): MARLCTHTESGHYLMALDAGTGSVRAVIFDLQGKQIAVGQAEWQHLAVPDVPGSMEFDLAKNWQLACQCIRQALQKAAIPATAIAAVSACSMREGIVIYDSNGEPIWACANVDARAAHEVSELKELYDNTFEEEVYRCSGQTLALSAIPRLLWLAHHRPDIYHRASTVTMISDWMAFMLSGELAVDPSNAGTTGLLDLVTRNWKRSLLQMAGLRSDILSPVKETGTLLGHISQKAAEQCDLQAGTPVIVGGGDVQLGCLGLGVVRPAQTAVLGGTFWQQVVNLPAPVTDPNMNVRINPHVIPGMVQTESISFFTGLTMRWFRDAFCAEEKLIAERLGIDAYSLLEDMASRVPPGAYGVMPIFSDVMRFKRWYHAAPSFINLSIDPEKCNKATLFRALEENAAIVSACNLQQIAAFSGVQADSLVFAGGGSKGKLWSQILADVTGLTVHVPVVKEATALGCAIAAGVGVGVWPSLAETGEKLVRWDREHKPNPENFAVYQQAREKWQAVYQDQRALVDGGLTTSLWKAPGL

| Compound | Inhibition (%) | inhibition at 50 µM |
| --- | --- | --- |
| CC1=C(/C=C/C(C)=C/C=C/C(C)=C\C(=O)O)C(C)(C)CCC1 [ISOTRETINON] | 1 |  |
| C[C@H](CCC(=O)O)[C@H]1CC[C@H]2[C@@H]3CCC4CCCC[C@]4(C)[C@H]3C=C[C@]12C (stereo partly shown) [CHOL-11-ENIC ACID] |  | 45% |
| CC1(C)S[C@@H]2[C@H](NC(=O)[C@H](N)c3ccccc3)C(=O)N2[C@H]1C(=O)O [AMPICILLIN SODIUM] |  | 1% |
| O=C(O)/C=C(\CC(=O)O)C(=O)O [ACONITIC ACID] |  | 1% |
| CC(C)=CCC/C(C)=C\CO [NEROL] |  | 1% |
| O=c1ccn([C@@H]2O[C@H](COP(=O)([O-])OP(=O)([O-])OP(=O)([O-])O)[C@@H](O)[C@H]2O)c(=O)[nH]1.[Na+].[Na+].[Na+] [URIDINE TRIPHOSPHATE TRISODIUM] | 1 |  |
| CC[N+](C)(CC)CCOC(=O)C(O)(c1ccccc1)C1CCCCC1 (stereo not shown) [OXYPHENONIUM BROMIDE] |  | 4% |
| CC(CCc1ccc(O)cc1)NCCc1ccc(O)c(O)c1 (stereo not shown) [DOBUTAMINE HYDROCHLORIDE] |  | 3% |
| O=C1c2ccccc2C(=O)c2ccccc21 [ANTHRAQUINONE] |  | 0% |
| COc1ccc2c(=O)c(CC(=O)O)coc2c1 [ANHYD[…]] |  | 3% |
| CC(=O)O[C@H]1C[C@@H](O)C(C)(C)[C@@H]2C[C@@H](OC(C)=O)[C@]3(C)[C@H](CC[C@@]4(C)[C@@H](c5ccoc5)OC(=O)[C@H]5O[C@@]534)[C@@]12C [3-DEACETYLKHIVORIN] |  | 99% |
| CCc1ccc(CCOc2ccc(CC3SC(=O)NC3=O)cc2)nc1 (stereo not shown) [PIOGLITAZONE HYDROCHLORIDE] |  | 0% |
| O=C(O)CCCO [SODIUM OXYBATE] |  | 1% |
| C[C@@H]1CC[C@H]2C(C)(C)[C@H]3C[C@@]12CC[C@@]3(C)O [CEDROL] |  | 13% |
| OC[C@@H](O)[C@H]1O[C@@H]2O[C@H](C(Cl)(Cl)Cl)O[C@@H]2[C@H]1O [CHLORALOSE] |  | 1% |
| COC1=CC(=O)C(O)=C/C1=C\C=C\c1ccccc1 [OBTUSAQUINONE] |  | 130% |
| NC1(C(=O)O)CC1 [AMINOCYCLOPROPANECARBOXYLIC ACID] |  | 1% |
| COc1ccc2c(c1)OC[C@@H](Cc1ccc(OC)c(OC)c1)[C@@H]2O [3-DESHYDRO[…] ETHER] |  | 3% |
| Cc1cc(O)c(C=O)c2c1C(=O)Oc1c(C)c(O)c3c(c1O2)C(O)OC3=O (stereo not shown) [[…]] |  | 145% |
| COC(=O)/C=C/C(C)=C\C=C\C(C)=C\C=C\C=C(C)\C=C\C=C(C)\C=C\C(=O)O [BIXIN] |  | 79% |
| CC(C)C(=O)Nc1ccc([N+](=O)[O-])c(C(F)(F)F)c1 [FLUTAMIDE] |  | 2% |
| CN(C)CCCO[C@@H]1[C@H]2OC(C)(C)O[C@H]2O[C@@H]1[C@H](O)CO [AMIPRILOSE] |  | 2% |
| C[C@H]1C(=O)CC[C@@H]2[C@]1(C)CC[C@H]1[C@@]2(C)CC[C@@]2(C)[C@@H]3CC(C)(C)CC[C@]3(C)CC[C@]12C [FRIEDELIN] |  | 1% |
| N[C@@H](CCC(=O)N[C@@H](CS)C(=O)NCC(=O)O)C(=O)O [GLUTATHIONE] |  | 1% |
| CC1=C(CCC(=O)O)c2cc3[nH]c(cc4nc(cc5[nH]c(cc1n2)c(C)c5C(C)O)C(C)=C4C(C)O)c(C)c3CCC(=O)O (stereo not shown) [HAEMATOPORPHYRIN] |  | 55% |
| COc1cc(O)c(C(=O)/C=C/c2ccc(OC)c(O)c2)c(OC)c1 [2'.3-DIHYDROXY-4.4'.6'-TRIMETHOXYCHALCONE] | 2 |  |

| Compound | Inhibition (%) | inhibition at 50 µM |
| --- | --- | --- |
| O=C(O)c1cc(O)c2c(c1)[C@H]([C@H]1c3cc(C(=O)O)cc(O)c3C(=O)c3c(O[C@@H]4O[C@H](CO)[C@@H](O)[C@H](O)[C@H]4O)cccc31)c1cccc(O[C@@H]3O[C@H](CO)[C@@H](O)[C@H](O)[C@H]3O)c1C2=O [SENNOSIDE A] |  | 0% |
| O=C(O)c1cn(-c2ccc(F)cc2)c2cc(N3CCNCC3)c(F)cc2c1=O [SARAFLOXACIN HYDROCHLORIDE] |  | 0% |
| COc1cc2c(cc1OC)[C@@H]1C(=O)c3c(O)cc4c(c3O[C@@H]1CO2)C=CC(C)(C)O4 [alpha-TOXICAROL] | 10 |  |
| COc1cc(OC)c(C(=O)CCCN2CCCC2)c(OC)c1.Cl [BUFLOMEDIL HYDROCHLORIDE] | 1 |  |
| C1CCC(C(CC2CCCCN2)C2CCCCC2)CC1 (stereo not shown) [PERHEXILINE MALEATE] |  | 1% |
| CNC[C@H](O)c1ccc(O)c(O)c1.O=C(O)C(O)C(O)C(=O)O [ADRENALINE BITARTRATE] | 15 |  |
| CC(C)=CCC1=C(O)C(=O)c2ccccc2C1=O [LAPACHOL] |  | 1% |
| C[C@H]1CC[C@]2(NC1)O[C@H]1C[C@H]3[C@@H]4CC[C@H]5C[C@@H](O[C@@H]6O[C@H](CO)[C@H](O[C@@H]7O[C@H](CO)[C@@H](O)[C@H](O[C@@H]8OC[C@@H](O)[C@H](O)[C@H]8O)[C@H]7O[C@@H]7O[C@H](CO)[C@@H](O)[C@H](O)[C@H]7O)[C@H](O)[C@H]6O)CC[C@]5(C)[C@H]4CC[C@]3(C)[C@H]1[C@@H]2C [TOMATINE] |  | 2% |
| CC[C@@H](C(=O)[C@@H](C)[C@@H](O)[C@H](C)[C@@H]1O[C@@H]([C@@H](CC)C(=O)O)CC[C@@H]1C)[C@H]1O[C@]2(C=C[C@@H](O)[C@]3(CC[C@@](C)([C@H]4CC[C@](O)(CC)[C@H](C)O4)O3)O2)[C@H](C)C[C@@H]1C [SALINOMYCIN. SODIUM] |  | 2% |
| COc1ccc(Cc2nccc3cc(OC)c(OC)cc23)cc1OC [PAPAVERINE HYDROCHLORIDE] |  | 1% |
| O=c1c2cc(O)c(O)cc2oc2cc(O)c([C@@H]3O[C@H](CO)[C@@H](O)[C@H](O)[C@H]3O)c(O)c12 [MANGIFERIN] |  | 14% |
| COc1cc2c(cc1OC)C1(O)C(=O)c3ccc(O)c(C(=O)O)c3OC1CO2 (stereo not shown) [12a-HYDROXY-9-DEMETHYLMUNDUSERONE-8-CARBOXYLIC ACID] |  | 3% |
| CC(C)c1cccc(C(C)C)c1O [PROPOFOL] |  | 7% |
| C=C[C@H]1CN2CC[C@H]1C[C@H]2[C@H](O)c1ccnc2ccccc12 [CINCHONIDINE] |  | 0% |
| OC(c1cc(C(F)(F)F)nc2c(C(F)(F)F)cccc12)C1CCCCN1 (stereo not shown) [MEFLOQUINE] |  | 32% |
| O=NN(CCCl)C(=O)NCCCl [CARMUSTINE] |  | 10% |
| CCN(CC)C(=O)c1ccc(O)c(OC)c1 |  | 0% |
| Nc1nc2nc[nH]c2c(=S)[nH]1 [THIOGUANINE] |  | 1% |
| CNCc1ccccc1.Cl [N-METHYLBENZYLAMINE HYDROCHLORIDE] | 0 |  |
| CCc1cn([C@H]2C[C@H](O)[C@@H](CO)O2)c(=O)[nH]c1=O [EDOXUDINE] |  | 0% |
| CC(C)(C)NC(=O)[C@H]1CC[C@H]2[C@@H]3CC[C@H]4NC(=O)C=C[C@]4(C)[C@H]3CC[C@]12C [FINASTERIDE] |  | 1% |
| Cc1cc2nc3c(=O)[nH]c(=O)nc-3n(C[C@H](O)[C@H](O)[C@H](O)COP(=O)([O-])O)c2cc1C.[Na+] [RIBOFLAVIN 5-PHOSPHATE SODIUM] | 1 |  |
| c1cncc([C@@H]2CCCCN2)c1 [ANABASINE HYDROCHLORIDE] |  | 2% |
| CN(C)CCCN1c2ccccc2Sc2ccc(C(F)(F)F)cc21 [TRIFLUPROMAZINE HYDROCHLORIDE] |  | 122% |
| CN(C(=O)C(Cl)Cl)c1ccc(OC(=O)c2ccco2)cc1 [DILOXANIDE FUROATE] |  | 4% |
| C/C=C(/C(=C/C)c1ccc(O)cc1)c1ccc(O)cc1 [DIENESTROL] |  | 2% |
